Our source for the EC50 values is patent publication US11932636B2, “RAD51 inhibitors” (Cyteir Therapeutics, Inc., priority 2019, dated 2024).

Each structure is given as a SMILES string.

The experiment concerns Daudi cells (AID positive). The experiment in a line: Compound primary screening: cell death in AID positive Daudi cells (Cell-Titer Glo, Day 7). The format is cell-based. The note with it: Homo sapiens, 168 h; Daudi cells, AID positive; cell death on Day 7, Cell-Titer Glo; read-out: Cellular activity in AID + (Daudi). The procedure:
Example 149. Compound Primary Screening
AID expressing cells are dependent upon RAD51 for survival; inhibiting RAD51 in AID positive cells results in a cytotoxic effect.
A 96 well u-bottom plate was prepared by writing the experiment number, plate number, date and initials in the top right corner of the plate lid. With a sterile 300 ml reservoir, and 25 ml serological pipette, evaporation buffer media was pipetted into reservoir in 25 ml increments. Using the liquid handler, 150 ul of evaporation buffer media was pipetted from reservoir into rows A and H, and Columns 1 and 12 of the 96 well u-bottom plate. Cell cultures were counted to obtain the density of cells per ml, and the culture viability. The cell density information was used to obtain 1,000,000 cells from culture using a 5 mL serological pipette into an epi tube. The cell density information from the culture was used to calculate the number of cells and volume of media needed for the assay to seed 1250 cells in 130 ul of media per available culture well in the 96 well u-bottom plate. Rows B through F were used for cells (50 wells in total), with row G left for an empty media control. The calculation was overestimated by 10 mL to account for the dead volume in the 300 ml reservoir. Once the media volume was calculated, the appropriate volume of media was pipetted in 25 mL increments into the 250 mL bottle using a 25 mL serological pipette. The 250 ml bottle was capped tightly, and placed into a 37° C. water bath for 2 minutes. While the culture media was warming, 10 mL of fresh media was pipetted from the 500 mL culture media bottle into a sterile 25 mL reservoir. Using the Eppendorf multichannel pipette, 130 ul of media was pipetted from the 25 mL reservoir into row G of the 96 well u-bottom plate. Once the 250 mL bottle of media was warmed, the volume of culture needed was pipetted into the bottle, and mixed gently with a 25 mL serological pipette as to not create bubbles, and then the contents of the bottle were pipetted into a new 300 mL reservoir. Using the liquid handler, 130 ul of culture was pipetted from the 300 mL reservoir into rows B through F of the 96 well u-bottom plate. Once the culture was added, the plate was placed into a 37° C. incubator until the compound master plate was prepared for use.
Two 96 well u-bottom plates were prepared by writing the master plate name in the upper right corner of the plate lid. Labeling one DMSO master and the other Media Master. The compounds of interest were obtained from the laboratory freezer, and placed into a 25 well storage box with a lid, and set the box aside. The compounds were vortexed after thawing but before use. Using an automatic multichannel pipette, 20 ul of 100% DMSO was pipetted into wells B3-B11 through G3-G11 of the DMSO master plate. For each compound on the master plate, 50 ul of the compound were pipetted in the appropriate well of row 2 (reference plate map to determine appropriate well). A serial dilution was prepared beginning by aspirating 20 ul from row 2 and mixing with row 3, repeating until row 11 was reached. Using the liquid handler, 194 ul of Daudi media was dispensed into wells B2-B11 through G2-G11 of the Media master plate. Using the liquid handler, 6 ul from the DMSO master plate was aspirated and dispensed into the media master plate, mixing 100 ul twice.
Compounds from master plate were then added to the culture plate. The culture plates were removed from the incubator, and set inside the biosafety cabinet. Using a liquid handler, 20 ul from wells B2 to B11 through G2 to G11 of master plate were aspirated, and dispensed into wells B2 to B11 through G2 to G11 of culture plate. This set was continued with each culture plate. Once the culture plates acquired their 20 ul of compound dilutions, they were placed back into the incubator, until their reads on Day 7 of experiment.
Cell death was measured on Day 7 of the experiment using Cell-Titer Glo and a Promega Plate reader.
Regarding `CC(C)OC(=O)N[C@H]1CC[C@H](c2ncc(-c3ccc(-c4cncnc4)cc3S(=O)(=O)NC(C)(C)C)s2)CC1` [Compound 12, isopropyl (trans-4-(5-(2-(N-(tert-butyl)sulfamoyl)-4-(pyrimidin-5-yl)phenyl)thiazol-2-yl)cyclohexyl)carbamate], the EC50 was more than 10000 nM.
Consider `COc1cc(-c2ccc(-c3cnc([C@H]4CC[C@H](NC(=O)OC(C)C)CC4)s3)c(S(=O)(=O)NC(C)(C)C)c2)c(OC)nn1` [Compound 13, isopropyl (trans-4-(5-(2-(N-(tert-butyl)sulfamoyl)-4-(3,6-dimethoxypyridazin-4-yl)phenyl)thiazol-2-yl)cyclohexyl)carbamate], for which the EC50 was in the range of 100 to 1000 nM.
As for `Cc1ncc(-c2ccc(-c3cnc([C@H]4CC[C@H](NC(=O)OC(C)C)CC4)s3)c(S(=O)(=O)NC(C)(C)C)c2)s1` [Compound 14, isopropyl (trans-4-(5-(2-(N-(tert-butyl)sulfamoyl)-4-(2-methylthiazol-5-yl)phenyl)thiazol-2-yl)cyclohexyl)carbamate], the EC50 is 1000 to 10000 nM.
In the case of `CC(C)OC(=O)N[C@H]1CC[C@H](c2ncc(-c3ccc(-c4ccc5ncsc5c4)cc3S(=O)(=O)NC(C)(C)C)s2)CC1` [Compound 15, isopropyl (trans-4-(5-(4-(benzo[d]thiazol-6-yl)-2-(N-(tert-butyl)sulfamoyl)phenyl)thiazol-2-yl)cyclohexyl)carbamate], the EC50 was in the range of 1000 to 10000 nM.
The result for `CC(C)OC(=O)N[C@H]1CC[C@H](c2ncc(-c3ccc(-c4cncc(CN(C)C)c4)cc3S(=O)(=O)NC(C)(C)C)s2)CC1` [Compound 16, isopropyl (trans-4-(5-(2-(N-(tert-butyl)sulfamoyl)-4-(5-((dimethylamino)methyl)pyridin-3-yl)phenyl)thiazol-2-yl)cyclohexyl)carbamate] reads 1000 to 10000 nM.
Turning to `Cc1[nH]ncc1-c1ccc(-c2cnc([C@H]3CC[C@H](NC(=O)OC(C)C)CC3)s2)c(S(=O)(=O)NC(C)(C)C)c1` [Compound 17, isopropyl (trans-4-(5-(2-(N-(tert-butyl)sulfamoyl)-4-(5-methyl-1H-pyrazol-4-yl)phenyl)thiazol-2-yl)cyclohexyl)carbamate], the EC50 lay in the range of 1000 to 10000 nM.
Regarding `CC(C)OC(=O)N[C@H]1CC[C@H](c2ncc(-c3ccc(-c4ccc(C#N)nc4)cc3S(=O)(=O)NC(C)(C)C)s2)CC1` [Compound 18, isopropyl (trans-4-(5-(2-(N-(tert-butyl)sulfamoyl)-4-(6-cyanopyridin-3-yl)phenyl)thiazol-2-yl)cyclohexyl)carbamate], the EC50 was in the range of 1000 to 10000 nM.
As for `CC(C)OC(=O)N[C@H]1CC[C@H](c2ncc(-c3ccc(-c4ccc5nn[nH]c5c4)cc3S(=O)(=O)NC(C)(C)C)s2)CC1` [Compound 19, isopropyl (trans-4-(5-(4-(1H-benzo[d][1,2,3]triazol-6-yl)-2-(N-(tert-butyl)sulfamoyl)phenyl)thiazol-2-yl)cyclohexyl)carbamate], the EC50 was more than 10000 nM.
The result for `CC(C)OC(=O)N[C@H]1CC[C@H](c2ncc(-c3ccc(-c4ccc(CO)nc4)cc3S(=O)(=O)NC(C)(C)C)s2)CC1` [Compound 20, isopropyl (trans-4-(5-(2-(N-(tert-butyl)sulfamoyl)-4-(6-(hydroxymethyl)pyridin-3-yl)phenyl)thiazol-2-yl)cyclohexyl)carbamate] reads 1000 to 10000 nM; that for `Cc1c[nH]c2cc(-c3ccc(-c4cnc([C@H]5CC[C@H](NC(=O)OC(C)C)CC5)s4)c(S(=O)(=O)NC(C)(C)C)c3)ccc12` [Compound 21, isopropyl (trans-4-(5-(2-(N-(tert-butyl)sulfamoyl)-4-(3-methyl-1H-indol-6-yl)phenyl)thiazol-2-yl)cyclohexyl)carbamate], 1000 to 10000 nM; that for `CC(C)OC(=O)N[C@H]1CC[C@H](c2ncc(-c3ccc(-c4ccnc(C(F)(F)F)c4)cc3S(=O)(=O)NC(C)(C)C)s2)CC1` [Compound 22, isopropyl (trans-4-(5-(2-(N-(tert-butyl)sulfamoyl)-4-(2-(trifluoromethyl)pyridin-4-yl)phenyl)thiazol-2-yl)cyclohexyl)carbamate], 1000 to 10000 nM.
The figure for `CC(C)OC(=O)N[C@H]1CC[C@H](c2ncc(-c3ccc(O)cc3S(=O)(=O)NC(C)(C)C)s2)CC1` [Compound 23, isopropyl (trans-4-(5-(2-(N-(tert-butyl)sulfamoyl)-4-hydroxyphenyl)thiazol-2-yl)cyclohexyl)carbamate] is 100 to 1000 nM.
On to `CC(C)OC(=O)N[C@H]1CC[C@H](c2ncc(-c3ccc(O)cc3S(N)(=O)=O)s2)CC1` [Compound 24, isopropyl (trans-4-(5-(4-hydroxy-2-sulfamoylphenyl)thiazol-2-yl)cyclohexyl)carbamate], for which the EC50 lay in the range of 100 to 1000 nM.
The result for `CC(C)OC(=O)N[C@H]1CC[C@H](c2ncc(-c3ccc(OCCNC(=O)OC(C)(C)C)cc3S(=O)(=O)NC(C)(C)C)s2)CC1` [Compound 25, isopropyl N-[trans-4-[5-[4-[2-(tert-butoxycarbonylamino)ethoxy]-2-(tert-butylsulfamoyl)phenyl]thiazol-2-yl]cyclohexyl]carbamate] reads 1000 to 10000 nM; that for `CC(C)OC(=O)N[C@H]1CC[C@H](c2ncc(-c3ccc(OCCN)cc3S(=O)(=O)NC(C)(C)C)s2)CC1` [Compound 26, isopropyl (trans-4-(5-(4-(2-aminoethoxy)-2-(N-(tert-butyl)sulfamoyl)phenyl)thiazol-2-yl)cyclohexyl)carbamate], 1000 to 10000 nM; that for `CC(C)OC(=O)N[C@H]1CC[C@H](c2ncc(-c3ccc(OC(C)C)cc3S(=O)(=O)NC(C)(C)C)s2)CC1` [Compound 27, isopropyl (trans-4-(5-(2-(N-(tert-butyl)sulfamoyl)-4-isopropoxyphenyl)thiazol-2-yl)cyclohexyl)carbamate], 1000 to 10000 nM.
The result for `COc1ccc(-c2cnc([C@H]3CC[C@H](NC(=O)OC(C)C)CC3)s2)c(S(=O)(=O)NC(C)(C)C)c1` [Compound 28, isopropyl (trans-4-(5-(2-(N-(tert-butyl)sulfamoyl)-4-methoxyphenyl)thiazol-2-yl)cyclohexyl)carbamate] reads more than 10000 nM; that for `CC(C)OC(=O)N[C@H]1CC[C@H](c2ncc(-c3ccc(OCCN(C)C(=O)OC(C)(C)C)cc3S(=O)(=O)NC(C)(C)C)s2)CC1` [Compound 29, tert-butyl (2-(3-(N-(tert-butyl)sulfamoyl)-4-(2-(trans-4-((isopropoxycarbonyl)amino)cyclohexyl)thiazol-5-yl)phenoxy)ethyl)(methyl)carbamate], 1000 to 10000 nM.
The result for `CC(C)OC(=O)N[C@H]1CC[C@H](c2ncc(-c3ccc(OCCN(C)C)cc3S(=O)(=O)NC(C)(C)C)s2)CC1` [Compound 30, isopropyl (trans-4-(5-(2-(N-(tert-butyl)sulfamoyl)-4-(2-(dimethylamino)ethoxy)phenyl)thiazol-2-yl)cyclohexyl)carbamate] reads more than 10000 nM; that for `COCCOc1ccc(-c2cnc([C@H]3CC[C@H](NC(=O)OC(C)C)CC3)s2)c(S(=O)(=O)NC(C)(C)C)c1` [Compound 31, isopropyl (trans-4-(5-(2-(N-(tert-butyl)sulfamoyl)-4-(2-methoxyethoxy)phenyl)thiazol-2-yl)cyclohexyl)carbamate], 1000 to 10000 nM.
